Experimental findings from US6399629B1, “Efflux pump inhibitors” (priority 1998, dated 2002) are described below.

The experiment concerns Pseudomonas aeruginosa PAM1001. Briefly: checkerboard assay (broth microdilution): levofloxacin MIC in presence of efflux pump inhibitor. The class given is cell-based. The gist of the method: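 Reduction of levofloxacin MIC by an efflux pump inhibitor measured against Pseudomonas aeruginosa PAM1001. Each microdilution well held a unique combination of levofloxacin and inhibitor (max 40 μg/mL) in MHB, inoculum 5×10^5 CFU/mL. Readout after 20 h, 35° C: OD650 plus visual inspection.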
A general note: In broth dilution the organism is exposed to a series of concentrations in liquid medium.

For the molecule `NCC(=O)N[C@H]1CN[C@H](c2nc3ccccc3n2CCc2ccccc2)C1` [Compound M75, (2S,4R)-4-(2-Aminoacetamido)-2-(1-(2-phenyl)ethyl-2-benzimidazolyl)pyrrolidine], the “Levofloxacin MIC Against P. aerugiuosa PAM1001 in Presence of Efflux Pump Inhibitor (EPI), Minimum Inhibitory Concentration” value (EPI Conc. 0 μg/mL) is 4 µg/mL; the “Levofloxacin MIC Against P. aerugiuosa PAM1001 in Presence of Efflux Pump Inhibitor (EPI), Minimum Inhibitory Concentration” value (EPI Conc. 0.625 μg/mL) is 4 µg/mL; the “Levofloxacin MIC Against P. aerugiuosa PAM1001 in Presence of Efflux Pump Inhibitor (EPI), Minimum Inhibitory Concentration” value (EPI Conc. 1.25 μg/mL) is 4 µg/mL; the “Levofloxacin MIC Against P. aerugiuosa PAM1001 in Presence of Efflux Pump Inhibitor (EPI), Minimum Inhibitory Concentration” value (EPI Conc. 2.5 μg/mL) came to 4 µg/mL; the “Levofloxacin MIC Against P. aerugiuosa PAM1001 in Presence of Efflux Pump Inhibitor (EPI), Minimum Inhibitory Concentration” value (EPI Conc. 5 μg/ mL) was determined as 4 µg/mL; the “Levofloxacin MIC Against P. aerugiuosa PAM1001 in Presence of Efflux Pump Inhibitor (EPI), Minimum Inhibitory Concentration” value (EPI Conc. 10 μg/mL) turned out to be 4 µg/mL. Besides, the “Levofloxacin MIC Against P. aerugiuosa PAM1001 in Presence of Efflux Pump Inhibitor (EPI), Minimum Inhibitory Concentration” value stood at 1 µg/mL (EPI Conc. 20 μg/mL) and 0.03 µg/mL (EPI Conc. 40 μg/mL).
With `NCC(=O)N[C@H]1CN[C@H](C(=O)N[C@H](CCc2ccccc2)c2nc3ccccc3o2)C1` [Compound M77, (2S,4R)-4-(2-Aminoacetamido)-N-[(1R)-1-(2-benzoxazolyl)-3-pheylpropyl]-2-pyrrolidinexarboxamide], the “Levofloxacin MIC Against P. aerugiuosa PAM1001 in Presence of Efflux Pump Inhibitor (EPI), Minimum Inhibitory Concentration” value reads like this: (EPI Conc. 0 μg/mL) 4 µg/mL; (EPI Conc. 0.625 μg/mL) 4 µg/mL; (EPI Conc. 1.25 μg/mL) 4 µg/mL; (EPI Conc. 2.5 μg/mL) 4 µg/mL; (EPI Conc. 5 μg/ mL) 4 µg/mL; (EPI Conc. 10 μg/mL) 4 µg/mL. Besides, the “Levofloxacin MIC Against P. aerugiuosa PAM1001 in Presence of Efflux Pump Inhibitor (EPI), Minimum Inhibitory Concentration” value reads like this: (EPI Conc. 20 μg/mL) 2 µg/mL; (EPI Conc. 40 μg/mL) 0.125 µg/mL.
Regarding `NCC(=O)N[C@H]1CN[C@H](C(=O)N[C@@H](CCc2ccccc2)c2nc3ccccc3[nH]2)C1` [Compound M78], the “Levofloxacin MIC Against P. aerugiuosa PAM1001 in Presence of Efflux Pump Inhibitor (EPI), Minimum Inhibitory Concentration” value came out at 4 µg/mL (EPI Conc. 0 μg/mL); 4 µg/mL (EPI Conc. 0.625 μg/mL); 4 µg/mL (EPI Conc. 1.25 μg/mL); 4 µg/mL (EPI Conc. 2.5 μg/mL); 4 µg/mL (EPI Conc. 5 μg/ mL); 2 µg/mL (EPI Conc. 10 μg/mL). Moreover, the “Levofloxacin MIC Against P. aerugiuosa PAM1001 in Presence of Efflux Pump Inhibitor (EPI), Minimum Inhibitory Concentration” value amounted to 1 µg/mL (EPI Conc. 20 μg/mL) and 0.125 µg/mL (EPI Conc. 40 μg/mL).
Regarding `NCC(=O)N[C@H]1CN[C@H](C(=O)NCc2nc3cc(Cc4ccccc4)ccc3[nH]2)C1` [Compound M79, (2S,4R)-4-(2-Aminoacetamido)-N-[(5-benzyl-2-benzimidazolyl)methyl]-2-pyrrolidinexarboxamide], the “Levofloxacin MIC Against P. aerugiuosa PAM1001 in Presence of Efflux Pump Inhibitor (EPI), Minimum Inhibitory Concentration” value by setting is: (EPI Conc. 0 μg/mL) 4 µg/mL; (EPI Conc. 0.625 μg/mL) 4 µg/mL; (EPI Conc. 1.25 μg/mL) 4 µg/mL; (EPI Conc. 2.5 μg/mL) 4 µg/mL; (EPI Conc. 5 μg/ mL) 4 µg/mL; (EPI Conc. 10 μg/mL) 2 µg/mL. The “Levofloxacin MIC Against P. aerugiuosa PAM1001 in Presence of Efflux Pump Inhibitor (EPI), Minimum Inhibitory Concentration” value was 1 µg/mL (EPI Conc. 20 μg/mL) and 0.125 µg/mL (EPI Conc. 40 μg/mL).
As for `NCC(=O)N[C@H]1CN[C@H](C(=O)NCc2nc3ccccc3n2CCc2ccccc2)C1` [Compound M80, (2S,4R)-4-(2-Aminoacetamido)-N-[(1-(2-phenyl)ethyl-2-benzimidazoly)methyl]-2-pyrrolidinexarboxamide], the “Levofloxacin MIC Against P. aerugiuosa PAM1001 in Presence of Efflux Pump Inhibitor (EPI), Minimum Inhibitory Concentration” value by setting is: (EPI Conc. 0 μg/mL) 4 µg/mL; (EPI Conc. 0.625 μg/mL) 4 µg/mL; (EPI Conc. 1.25 μg/mL) 4 µg/mL; (EPI Conc. 2.5 μg/mL) 4 µg/mL; (EPI Conc. 5 μg/ mL) 2 µg/mL; (EPI Conc. 10 μg/mL) 0.25 µg/mL. Besides, the “Levofloxacin MIC Against P. aerugiuosa PAM1001 in Presence of Efflux Pump Inhibitor (EPI), Minimum Inhibitory Concentration” value was found to be 0.06 µg/mL (EPI Conc. 20 μg/mL) and 0.06 µg/mL (EPI Conc. 40 μg/mL).
As for `CC(C)(C)c1ccc2nc(CNC(=O)[C@@H]3C[C@@H](NC(=O)CN)CN3)[nH]c2c1` [Compound M81], the “Levofloxacin MIC Against P. aerugiuosa PAM1001 in Presence of Efflux Pump Inhibitor (EPI), Minimum Inhibitory Concentration” value (EPI Conc. 0 μg/mL) was found to be 4 µg/mL; the “Levofloxacin MIC Against P. aerugiuosa PAM1001 in Presence of Efflux Pump Inhibitor (EPI), Minimum Inhibitory Concentration” value (EPI Conc. 0.625 μg/mL) is 4 µg/mL; the “Levofloxacin MIC Against P. aerugiuosa PAM1001 in Presence of Efflux Pump Inhibitor (EPI), Minimum Inhibitory Concentration” value (EPI Conc. 1.25 μg/mL) worked out at 4 µg/mL; the “Levofloxacin MIC Against P. aerugiuosa PAM1001 in Presence of Efflux Pump Inhibitor (EPI), Minimum Inhibitory Concentration” value (EPI Conc. 2.5 μg/mL) was found to be 4 µg/mL; the “Levofloxacin MIC Against P. aerugiuosa PAM1001 in Presence of Efflux Pump Inhibitor (EPI), Minimum Inhibitory Concentration” value (EPI Conc. 5 μg/ mL) amounted to 2 µg/mL; the “Levofloxacin MIC Against P. aerugiuosa PAM1001 in Presence of Efflux Pump Inhibitor (EPI), Minimum Inhibitory Concentration” value (EPI Conc. 10 μg/mL) is 1 µg/mL. For the same molecule, the “Levofloxacin MIC Against P. aerugiuosa PAM1001 in Presence of Efflux Pump Inhibitor (EPI), Minimum Inhibitory Concentration” value (EPI Conc. 20 μg/mL) came to 0.25 µg/mL and the “Levofloxacin MIC Against P. aerugiuosa PAM1001 in Presence of Efflux Pump Inhibitor (EPI), Minimum Inhibitory Concentration” value (EPI Conc. 40 μg/mL) is 0.03 µg/mL.
Turning to `NCC(=O)N[C@H]1CN[C@H](C(=O)NCc2nc3cc(C(O)c4ccccc4)ccc3[nH]2)C1` (stereo partly drawn) [Compound M82, (2S,4R)-4-(2-Aminoacetamido)-N-[(5-(1-hydroxy-1-phenyl)methyl-2-benzimidazolyl)methyl]-2-pyrrolidinecarboxaniide], the “Levofloxacin MIC Against P. aerugiuosa PAM1001 in Presence of Efflux Pump Inhibitor (EPI), Minimum Inhibitory Concentration” value is 4 µg/mL (EPI Conc. 0 μg/mL); 4 µg/mL (EPI Conc. 0.625 μg/mL); 4 µg/mL (EPI Conc. 1.25 μg/mL); 2 µg/mL (EPI Conc. 2.5 μg/mL); 1 µg/mL (EPI Conc. 5 μg/ mL); 0.25 µg/mL (EPI Conc. 10 μg/mL). Moreover, the “Levofloxacin MIC Against P. aerugiuosa PAM1001 in Presence of Efflux Pump Inhibitor (EPI), Minimum Inhibitory Concentration” value is, setting by setting: (EPI Conc. 20 μg/mL) 0.125 µg/mL; (EPI Conc. 40 μg/mL) 0.06 µg/mL.
Regarding `NCC(=O)N[C@H]1CN[C@H](C(=O)N[C@@H](CCc2ccccc2)c2nc3ccccc3o2)C1` [Compound M85, (2S,4R)-4-(2-Aminoacetamido)-N-[(1S)-1-(2-benzoxazoiyl)-3-phenylpropyl]-2-pyrrolidinecarboxamide], the “Levofloxacin MIC Against P. aerugiuosa PAM1001 in Presence of Efflux Pump Inhibitor (EPI), Minimum Inhibitory Concentration” value by setting is: (EPI Conc. 0 μg/mL) 4 µg/mL; (EPI Conc. 0.625 μg/mL) 4 µg/mL; (EPI Conc. 1.25 μg/mL) 4 µg/mL; (EPI Conc. 2.5 μg/mL) 4 µg/mL; (EPI Conc. 5 μg/ mL) 4 µg/mL; (EPI Conc. 10 μg/mL) 2 µg/mL. The “Levofloxacin MIC Against P. aerugiuosa PAM1001 in Presence of Efflux Pump Inhibitor (EPI), Minimum Inhibitory Concentration” value runs as follows: (EPI Conc. 20 μg/mL) 0.50 µg/mL; (EPI Conc. 40 μg/mL) 0.03 µg/mL.
As to `NC[C@H]1CN[C@@H](C(=O)NCc2nc3ccc(Cc4ccccc4)cc3[nH]2)C1` [Compound M87, (2R,4S)-4-(Aminomethyl)-N-[(5-benzyl-2-benzimidazoiyl)methyl]-2-pyrrolidinecarboxamide], the “Levofloxacin MIC Against P. aerugiuosa PAM1001 in Presence of Efflux Pump Inhibitor (EPI), Minimum Inhibitory Concentration” value (EPI Conc. 0 μg/mL) turned out to be 4 µg/mL; the “Levofloxacin MIC Against P. aerugiuosa PAM1001 in Presence of Efflux Pump Inhibitor (EPI), Minimum Inhibitory Concentration” value (EPI Conc. 0.625 μg/mL) was 4 µg/mL; the “Levofloxacin MIC Against P. aerugiuosa PAM1001 in Presence of Efflux Pump Inhibitor (EPI), Minimum Inhibitory Concentration” value (EPI Conc. 1.25 μg/mL) amounted to 4 µg/mL; the “Levofloxacin MIC Against P. aerugiuosa PAM1001 in Presence of Efflux Pump Inhibitor (EPI), Minimum Inhibitory Concentration” value (EPI Conc. 2.5 μg/mL) worked out at 1 µg/mL; the “Levofloxacin MIC Against P. aerugiuosa PAM1001 in Presence of Efflux Pump Inhibitor (EPI), Minimum Inhibitory Concentration” value (EPI Conc. 5 μg/ mL) turned out to be 0.125 µg/mL; the “Levofloxacin MIC Against P. aerugiuosa PAM1001 in Presence of Efflux Pump Inhibitor (EPI), Minimum Inhibitory Concentration” value (EPI Conc. 10 μg/mL) was determined as 0.06 µg/mL. Besides, under “EPI Conc. 20 μg/mL”, the “Levofloxacin MIC Against P. aerugiuosa PAM1001 in Presence of Efflux Pump Inhibitor (EPI), Minimum Inhibitory Concentration” value was 0.03 µg/mL.
For the molecule `NC[C@@H]1CN[C@@H](C(=O)NCc2nc3ccc(-c4ccccc4)cc3[nH]2)C1` [Compound M89, (2R,4R)-4-(Aminomethyl)-N-[(5-phenyl-2-benzimidaxolyl)methyl]-2-pyrrolidinecarboxamide], the “Levofloxacin MIC Against P. aerugiuosa PAM1001 in Presence of Efflux Pump Inhibitor (EPI), Minimum Inhibitory Concentration” value (EPI Conc. 0 μg/mL) came to 4 µg/mL; the “Levofloxacin MIC Against P. aerugiuosa PAM1001 in Presence of Efflux Pump Inhibitor (EPI), Minimum Inhibitory Concentration” value (EPI Conc. 0.625 μg/mL) came to 4 µg/mL; the “Levofloxacin MIC Against P. aerugiuosa PAM1001 in Presence of Efflux Pump Inhibitor (EPI), Minimum Inhibitory Concentration” value (EPI Conc. 1.25 μg/mL) worked out at 4 µg/mL; the “Levofloxacin MIC Against P. aerugiuosa PAM1001 in Presence of Efflux Pump Inhibitor (EPI), Minimum Inhibitory Concentration” value (EPI Conc. 2.5 μg/mL) is 4 µg/mL; the “Levofloxacin MIC Against P. aerugiuosa PAM1001 in Presence of Efflux Pump Inhibitor (EPI), Minimum Inhibitory Concentration” value (EPI Conc. 5 μg/ mL) is 2 µg/mL; the “Levofloxacin MIC Against P. aerugiuosa PAM1001 in Presence of Efflux Pump Inhibitor (EPI), Minimum Inhibitory Concentration” value (EPI Conc. 10 μg/mL) was 2 µg/mL. In addition, the “Levofloxacin MIC Against P. aerugiuosa PAM1001 in Presence of Efflux Pump Inhibitor (EPI), Minimum Inhibitory Concentration” value was found to be 0.03 µg/mL (EPI Conc. 20 μg/mL) and 0.03 µg/mL (EPI Conc. 40 μg/mL).
